Results published in patent EP0514935B1, “Novel benzopyran derivatives and processes for the preparation thereof” (KOREA RESEARCH INSTITUTE OF CHEMICAL TECHNOLOGY, priority 1991, dated 1992).
Like-named read-outs stand apart in the source and are kept apart here.

Assays:
[1] = test system: spontaneously hypertensive rats; experiment: Blood pressure-lowering activity, tail-cuff method; assay type: in vivo; settings: maximum lowering effect on systolic blood pressure
Method: The activity of the formula(I) compounds of the present invention was tested by employing the tail-cuff method described in references [see, e.g., I. M. Claxton, M. G. Palfreyman, R. H. Poyster and R. L. Whiting, European Journal of Pharmacology 37, 179(1976)] . After administration of the test compound of formula(I) to sets of spontaneously hypertensive rats, maximum blood pressure-lowering activity was determined by measuring the lowering effect on systolic blood pressure.

[2] = test system: Guinea pig trachea muscle; experiment: Relaxation activity on respiratory smooth muscle contracted with histamine; assay type: cell-based; settings: Cavia porcellus, concentration relaxing 50% of the contraction, read-out: Trachea Relaxation Activity, EC₅₀
Method: Further, the relaxation activity on respiratory smooth muscle was determined as follows: Guinea pig trachea muscle was made to be contracted with histamine; and then the test compound of the present invention was administered thereto; and the concentration of the test compound which was required in relaxing 50% level of the contraction was determined and designated as EC₅₀.

[3] = Toxicity test, oral administration, deaths over 48 hours; settings: rat, in vivo, rats, orally administered; for mortality at 48 h: deaths over 48 hours, read-out: Lethal Rate(%); for LD50 at 48 h: amount of test compound which causes a 50% lethal rate, read-out: LD₅₀
Method: Six pairs(each pair consisting of a male and a female) of the rats were used in the test. The number of the rats which died over a period of 48 hours was reported.

SMILES | EC50 [2] [µM] | Blood Pressure-Lowering Activity ([1]; Dose 0.3 mg/kg) [%] | Blood Pressure-Lowering Activity ([1]; Dose 1.0 mg/kg) [%] | mortality at 48 h ([3]; Dose 10 mg/kg) [%] | mortality at 48 h ([3]; Dose 20 mg/kg) [%] | mortality at 48 h ([3]; Dose 50 mg/kg) [%] | LD50 at 48 h [3] [mg/kg] | Blood Pressure-Lowering Activity ([1]; Dose 0.1 mg/kg) [%]
COC(OC)C1(C)C=C(N2CCCC2=O)c2cc(C#N)ccc2O1 (racemic) [Example 1, 2-dimethoxymethyl-2-methyl-4-(2' -oxo-1' -pyrrolidinyl)-6-cyano-2H-1-benzopyran] | 150 | 24 | 43 | 0 | 8 | 25 | > 50 | 
CC1(C2OCCCO2)C=C(N2CCCC2=O)c2cc([N+](=O)[O-])ccc2O1 (racemic) [Example 11, 2-(2'' -(1'' ,3'' -dioxane))-2-methyl-4-(2' -oxo-1' -pyrrolidinyl)-6-nitro-2H-1-benzopyran] | 50 |  |  | 0 | 35 | 35 | > 50 | 48
COC(OC)C1(C)C=C(N2CCCC2=O)c2cc(C#N)ccc2O1 (single isomer, unassigned) [16(-), 2-dimethoxymethyl-2-methyl-4-(2' -oxo-1' -pyrrolidinyl)-6-cyano-2H-1-benzopyran] | 140 | 28 | 55 |  |  |  |  | 

The next lines start with results.

EC50 [2] [µM] | SMILES | Blood Pressure-Lowering Activity ([1]; Dose 0.3 mg/kg) [%] | Blood Pressure-Lowering Activity ([1]; Dose 1.0 mg/kg) [%] | mortality at 48 h ([3]; Dose 10 mg/kg) [%] | mortality at 48 h ([3]; Dose 20 mg/kg) [%] | mortality at 48 h ([3]; Dose 50 mg/kg) [%] | LD50 at 48 h [3] [mg/kg] | Blood Pressure-Lowering Activity ([1]; Dose 0.1 mg/kg) [%]
10.9 | COC(OC)C1(C)C=C(N2CCCC2=O)c2cc(S(=O)(=O)c3ccccc3)ccc2O1 (racemic) [Example 3, 2-dimethoxymethyl-2-methyl-4-(2' -oxo-1' -pyrrolidinyl)-6-phenylsulfonyl-2H-1-benzopyran] |  |  |  |  |  |  | 6.9
50 | CC1(C2OCCO2)C=C(N2CCCC2=O)c2cc(C#N)ccc2O1 (racemic) [Example 7, 2-(2'' -(1'' ,3'' -dioxolane))-2-methyl-4-(2' -oxo-1' -pyrrolidinyl)-6-cyano-2H-1-benzopyran] |  | 41 |  |  |  |  | 
17.1 | CC1(C2OCCO2)C=C(N2CCCC2=O)c2cc(OC(F)(F)F)ccc2O1 (racemic) [Example 9, 2-(2'' -(1'' ,3'' -dioxolane))-2-methyl-4-(2' -oxo-1' -pyrrolidinyl)-6-trifluoromethoxy-2H-1-benzopyran] |  |  |  |  |  |  | 20.6
2.7 | CC1(C)Oc2ccc(C#N)cc2C(N2CCCC2=O)C1O (stereo not drawn) [Cromakalim(-), Cromakalim, reference compound] | 39 |  |  |  |  |  | 
